Experimental data published in patent publication US8568814B2, “Lanthionine derivatives” (Ajinomoto Co., Inc., priority 2009, dated 2013).

Key:
human CaSR [1] = target: T1, human CaSR (Homo sapiens, UniProt P41180, E1011Q); assay: Evaluation (1) and (2) of CaSR agonist activity (Ca2+ fluorescence in transfected 293E cells); type: cell-based; conditions: 293E cells transfected with hCaSR/pcDNA3.1; Calcium 4/5 Assay Kit; methods (1) and (2)
T1 construct: expressed in transfected cells; host or cells: 293E cells (EBNA1-expression HEK293 cells, ATCC No. CRL-10852), transient transfection of hCaSR/pcDNA3.1
T1 sequence (P41180 20-1078 E1011Q): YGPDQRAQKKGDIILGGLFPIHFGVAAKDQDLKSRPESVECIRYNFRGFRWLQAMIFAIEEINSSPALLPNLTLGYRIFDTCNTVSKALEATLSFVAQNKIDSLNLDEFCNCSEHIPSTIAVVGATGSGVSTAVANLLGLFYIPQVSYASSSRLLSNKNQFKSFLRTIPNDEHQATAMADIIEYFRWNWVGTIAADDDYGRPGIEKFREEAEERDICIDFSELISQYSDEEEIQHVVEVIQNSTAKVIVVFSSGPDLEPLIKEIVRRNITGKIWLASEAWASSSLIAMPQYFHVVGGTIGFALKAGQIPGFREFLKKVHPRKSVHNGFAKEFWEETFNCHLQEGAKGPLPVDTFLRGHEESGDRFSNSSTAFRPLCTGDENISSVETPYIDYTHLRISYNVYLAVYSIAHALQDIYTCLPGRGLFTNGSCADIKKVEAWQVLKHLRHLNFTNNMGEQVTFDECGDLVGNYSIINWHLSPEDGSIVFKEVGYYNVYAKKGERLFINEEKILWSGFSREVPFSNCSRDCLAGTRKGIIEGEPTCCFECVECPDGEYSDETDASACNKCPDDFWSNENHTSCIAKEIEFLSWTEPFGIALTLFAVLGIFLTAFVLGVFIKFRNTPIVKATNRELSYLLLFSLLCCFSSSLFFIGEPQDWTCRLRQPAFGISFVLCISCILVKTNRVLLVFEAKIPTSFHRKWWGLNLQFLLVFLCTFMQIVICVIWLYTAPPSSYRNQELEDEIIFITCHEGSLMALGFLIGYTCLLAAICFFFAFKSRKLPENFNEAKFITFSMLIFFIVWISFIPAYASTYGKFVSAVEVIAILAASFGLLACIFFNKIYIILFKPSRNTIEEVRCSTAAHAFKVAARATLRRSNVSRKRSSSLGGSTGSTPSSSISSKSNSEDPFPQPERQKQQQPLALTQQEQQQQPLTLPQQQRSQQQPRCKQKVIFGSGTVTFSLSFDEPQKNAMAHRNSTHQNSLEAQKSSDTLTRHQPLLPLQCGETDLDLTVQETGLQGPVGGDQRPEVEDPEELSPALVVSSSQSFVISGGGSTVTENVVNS
Procedure: (§1) 293E Cells (EBNA1-expression HEK293 cells, ATCC No. CRL-10852) were cultivated in DMEM/Ham's-F12 (3.15/ml Glucose-containing Dulbecco's modified Eagle medium; available from NAKARAI TESK Company) containing 10% fetal calf serum in the presence of 200 μg/ml of G418 (available from Genetisine Company). The cultured cells were inoculated in F25 flask at a density of 3×10^6 cells/10 ml, then the content of the flask was allowed to stand for 24 hours in a CO2 incubator (5% CO2, 37° C.), and then the human CaSR-expression plasmid hCaSR/pcDNA3.1 was transfected using a transfection agent Fugene 6 (available from Roche Company). After allowing the flask to stand in a CO2 incubator for 6 to 7 hours, the cells were recovered using 10% fetal calf serum-containing DMEM/Ham's-F12 and then inoculated in each well of a poly-D-lysine coat 96-well plate (BD-Biocoat) at a density of 70,000 cells/well.
(§2) After allowing the well plate to stand in a CO2 incubator for 24 hours, the culture medium was removed from each well of the 96-well plate to which the cells had been inoculated, and a solution of Ca^2+ fluorescent indicator Calcium 4 Assay Kit (available from Molecular Devices Company) in an Assay Buffer (containing 146 mM of NaCl, 5 mM of KCl, 1 mM of MgSO4, 1 mg/ml of Glucose, 20 mM of HEPES (pH 7.2), and 0.75 to 1.25 mM of CaCl2) in an amount of 200 μl/well was added to each well, and each well was allowed to stand at 37° C. for one hour and then at room temperature for 10 minutes to thus make the cells take the indicator.
(§3) To each well of the 96-well plate, a solution of a test compound in a 0.1% BSA-containing Assay Buffer in an amount of 50 μl/well was added, and the wells were inspected for any change in the intensity of fluorescent light rays emitted therefrom for 3 minutes using FLEX Station (available from Molecular Devices Company).
(§4) Method for the Calculation of EC50
(§5) The difference (RFU (Max-Min) between the maximum and minimum intensities of fluorescent light rays observed before and after the addition of the test compound were calculated according to the automatic calculation by the FLEX Station. In this respect, the activity rate of a test compound was calculated, while the RFU (Max-Min) value observed when adding a test compound in a maximum concentration was defined to be 100% and the RFU (Max-Min) value observed when using a 0.1% BSA-containing Assay Buffer free of any added test compound was defined to be 0%, then the curve-fitting was carried out using a software Xfit for spreadsheet or a GraphPad Prism to thus determine each corresponding EC50 value as the concentration of each test compound observed at the activity rate of 50%.
as §1, with “plasmid:” for “plasmid”, “384-well” for “96-well”, “2×10^6” for “70,000”, “cells/well. […]” for “cells/well.”

panelists [2] = assay: Quantitative organoleptic evaluation of kokumi-imparting activity in cow's milk; type: in vivo, human; conditions: for Intensity of Kokumi After Taste / Intensity of Kokumi Initial-Middle Taste: score scale -5 to +5, n=5
Procedure: The quantitative organoleptic evaluation test was carried out according to the following procedures: The intensity of the kokumi-imparting activity of the test compound was determined using a mixture obtained by adding, to the commercially available cow's milk (fat content: 3.6%), […] The pH value of the samples used was adjusted to that of the control free of any test compound (i.e., the pH value of the latter +0.2). […] The scoring was carried out using the linear-scale technique, in which each corresponding score was plotted on a straight line on which the scores equal to −5, 0 and +5 had been expressly specified. […] In this respect, the term “initial-middle taste” means the taste detected during the term ranging from 0 to 5 seconds after keeping each sample in each panelist's mouth and the term “after taste” means that detected thereafter.

human CaSR [3] = target: T2, human CaSR (Homo sapiens, UniProt P41180); assay: Evaluation (1) and (2) of CaSR agonist activity (Ca2+ fluorescence in transfected 293E cells); type: cell-based; conditions: ratio to γ-Glu-Cys
T2 construct: expressed in transfected cells; host or cells: 293E cells (EBNA1-expression HEK293 cells, ATCC No. CRL-10852), transient transfection of hCaSR/pcDNA3.1
T2 sequence (P41180 20-1078 E1011Q): T1 sequence (P41180 20-1078 E1011Q)
Procedure: as §1, §2, §3, §4, §5
as §1, with “plasmid:” for “plasmid”, “384-well” for “96-well”, “2×10^6” for “70,000”, “cells/well. […]” for “cells/well.”

panelists [4] = assay: Quantitative organoleptic evaluation of kokumi-imparting activity in umami/salty solution; type: in vivo, human; conditions: for Intensity of Kokumi After Taste / Intensity of Kokumi Initial-Middle Taste: score scale -5 to +5, n=5
Procedure: The scoring was carried out using the linear-scale technique, in which each corresponding score was plotted on a straight line on which the scores equal to −5, 0 and +5 had been expressly specified. In addition, persons selected as panelists in these evaluation tests were persons who had been engaged in the development of a seasoning over a cumulative period of at least a half year, and who could so judge that the difference between γ-Glu-Cys-Gly and γ-Glu-Val-Gly, each of which was added to a solution having umami and salty taste, was about 10 times (this ability was confirmed at regular intervals). In this respect, the term “initial-middle taste” means the taste detected from 0 to 5 seconds after placing and maintaining each sample in each panelist's mouth, and the term “after taste” means that detected thereafter.

panelists [5] = assay: Quantitative organoleptic evaluation of kokumi-imparting activity in dried-bonito extract; type: in vivo, human; conditions: for Intensity of Kokumi After Taste / Intensity of Kokumi Initial-Middle Taste: score scale -5 to +5, n=5
Procedure: The pH value of the samples used was adjusted to that of the control free of any test compound (i.e., the pH value of the latter +0.2). […] The scoring was carried out using the linear-scale technique, in which each corresponding score was plotted on a straight line on which the scores equal to −5, 0 and +5 had been expressly specified. […] In this respect, the term “initial-middle taste” means the taste detected from 0 to 5 seconds after placing and maintaining each sample in each panelist's mouth, and the term “after taste” means that detected thereafter.

[6] = 0.0001 g/dL in cow's milk (fat content 3.6%)
[7] = 0.0005 g/dL in cow's milk (fat content 3.6%)
[8] = 0.0001 g/dL in water with MSG 0.05, IMP 0.05, NaCl 0.5 g/dL
[9] = 0.0005 g/dL in water with MSG 0.05, IMP 0.05, NaCl 0.5 g/dL
[10] = 0.0001 g/dL in dried bonito extract 20.0 g/dL with common salt 0.5 g/dL
[11] = 0.0005 g/dL in dried bonito extract 20.0 g/dL with common salt 0.5 g/dL
[12] = 0.01 g/dL, reference standard for the scoring
[13] = 0.001 g/dL in cow's milk (fat content 3.6%)
[14] = 0.001 g/dL in water with MSG 0.05, IMP 0.05, NaCl 0.5 g/dL
[15] = 0.001 g/dL in dried bonito extract 20.0 g/dL with common salt 0.5 g/dL

`N[C@@H](CCC(=O)N[C@H]1CSC[C@H](C(=O)O)NC1=O)C(=O)O` [Compound 8a] showed an EC50 (human CaSR [1]) of 14300 nM.

For `N[C@@H](CCC(=O)N[C@H]1CSC[C@@H](C(=O)O)NC1=O)C(=O)O` [Compound 8b], the “Intensity of Kokumi After Taste” value (panelists [2]; [6]) was 2.3, the “Intensity of Kokumi Initial-Middle Taste” value (panelists [2]; [6]) was 2.4 and the “kokumi-imparting activity (in words)” value (panelists [2]; 0.0001 to 0.0005 g/dL in cow's milk) was “showed its kokumi-imparting activity over the wide range of the foregoing added concentrations”. For the same molecule, the “Intensity of Kokumi After Taste” value (panelists [2]; [7]) was 3.5, the “Intensity of Kokumi Initial-Middle Taste” value (panelists [2]; [7]) was 3.5 and the EC50 (human CaSR [1]) was 53 nM. For the same molecule, the “CaSR agonist activity relative to that of γ-Glu-Cys” value (human CaSR [3]) was “about 9 times”, the “Intensity of Kokumi After Taste” value (panelists [4]; [8]) was 2.4 and the “Intensity of Kokumi Initial-Middle Taste” value (panelists [4]; [8]) was 2.3. For the same molecule, the “kokumi-imparting activity (in words)” value (panelists [4]; 0.0001 to 0.0005 g/dL in water with MSG, IMP, NaCl) was “showed its kokumi-imparting activity over the wide range of the foregoing added concentrations”, the “Intensity of Kokumi After Taste” value (panelists [4]; [9]) was 3.5 and the “Intensity of Kokumi Initial-Middle Taste” value (panelists [4]; [9]) was 3.4. The “Intensity of Kokumi After Taste” value (panelists [5]; [10]) was 2.5, the “Intensity of Kokumi Initial-Middle Taste” value (panelists [5]; [10]) was 2.3 and the “kokumi-imparting activity (in words)” value (panelists [5]; 0.0001 to 0.0005 g/dL in dried bonito extract solution) was “showed its kokumi-imparting activity over the wide range of the foregoing added concentrations”. The “Intensity of Kokumi After Taste” value (panelists [5]; [11]) was 3.7 and the “Intensity of Kokumi Initial-Middle Taste” value (panelists [5]; [11]) was 3.5.

In the case of `N[C@@H](CCC(=O)N[C@@H]1CSC[C@@H](C(=O)O)NC1=O)C(=O)O` [Compound 8c], the EC50 (human CaSR [1]) is reported as 20000 nM.

`N[C@@H](CCC(=O)N[C@@H]1CSC[C@H](C(=O)O)NC1=O)C(=O)O` [Compound 8d] was tested, and the EC50 (human CaSR [1]) was 1950 nM.

With `N[C@@H](CCC(=O)N[C@H]1CSCCC(C(=O)O)NC1=O)C(=O)O` (stereo partly drawn) [Compound 21] the EC50 (human CaSR [1]) was 1850 nM.

`C[C@@H]1SC[C@H](NC(=O)CC[C@H](N)C(=O)O)C(=O)N[C@@H]1C(=O)O` [Compound 29] gave an EC50 (human CaSR [1]) of 580 nM.

Molecule `N[C@@H](CCC(=O)NC1CCCC(C(=O)O)NC1=O)C(=O)O` (stereo partly drawn) [Compound 35] has an EC50 (human CaSR [1]) of 199 nM.

`N[C@@H](CCC(=O)N[C@@H](CS)C(=O)O)C(=O)O` [γ-Glu-Cys, reference compound] was tested, and the EC50 (human CaSR [1]) was 460 nM.

`N[C@@H](CCC(=O)N[C@@H](CS)C(=O)NCC(=O)O)C(=O)O` [γ-Glu-Cys-Gly, reference compound] was tested, and the “intensity of the kokumi, after taste” value (panelists [2]; [12]) was 3.0, the “intensity of the kokumi, initial-middle taste” value (panelists [2]; [12]) was 3.0 and the “intensity of the kokumi, after taste” value (panelists [4]; [12]) was 3.0. The “intensity of the kokumi, initial-middle taste” value (panelists [4]; [12]) was 3.0, the “intensity of the kokumi, after taste” value (panelists [5]; [12]) was 3.0 and the “intensity of the kokumi, initial-middle taste” value (panelists [5]; [12]) was 3.0.

In the case of `CC(C)[C@H](NC(=O)CC[C@H](N)C(=O)O)C(=O)NCC(=O)O` [γ-Glu-Val-Gly, reference compound], the “Comments for the Evaluation” value (panelists [2]; 0.001 g/dL in cow's milk) is reported as “The thickness feeling of the cow's”, the “Intensity of Kokumi After Taste” value (panelists [2]; [13]) is reported as 3.0 and the “Intensity of Kokumi Initial-Middle Taste” value (panelists [2]; [13]) is reported as 2.5. For the same molecule, the “Intensity of Kokumi After Taste” value (panelists [4]; [14]) was 3.0, the “Intensity of Kokumi Initial-Middle Taste” value (panelists [4]; [14]) was 2.5 and the “Comments for the Evaluation” value (panelists [4]; 0.001 g/dL in water with MSG, IMP, NaCl) was “The kokumi is strengthened mainly”. The “Intensity of Kokumi After Taste” value (panelists [5]; [15]) was 3.0, the “Intensity of Kokumi Initial-Middle Taste” value (panelists [5]; [15]) was 2.5 and the “Comments for the Evaluation” value (panelists [5]; 0.001 g/dL in dried bonito extract solution) was “The fish meat taste of the dried”.
